Some test systems named below: CCRF-CEM leukemia; HCT-15 colon; HOP-18 NSCLC; KM20L2 colon; MALME-3M melanoma; SK-OV-3 ovarian; CAKI-1 renal; HOP-92 NSCLC; NCI/ADR-RES ovarian; PC-3 prostate.
Assay in all cases: DTP human tumour cell line panel, 48 h

The source of these data is PubChem BioAssay (NCI).

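In this assay, cells in 96-well plates receive the compound at five concentrations for 48 hours. Endpoints are linearly interpolated between the surrounding concentrations. The concentration for 50% growth inhibition is given as GI50. TGI: total growth inhibition.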

In general, TGI refers to the concentration giving total growth inhibition. `CC(=O)OCCOCNC(=S)N/N=C(\C)c1ccco1`: the TGI in the assay on CCRF-CEM leukemia, in the assay on HCT-15 colon, in the assay on HOP-18 NSCLC, in the assay with KM20L2 colon, in the assay on MALME-3M melanoma and with SK-OV-3 ovarian was above 100 µM throughout.

As for `CCC(=O)O[C@@H]1C2C(OC(C)=O)C34COC(C)([C@@H]3C3C(C[C@]3(C)OC(C)=O)[C@@H](OC(=O)c3ccccc3)C4=O)[C@H](OC(C)=O)[C@@]2(OC(C)=O)C[C@@H]1C` (stereo not given in full), the TGI with CAKI-1 renal is above 100 µM; in the assay on CCRF-CEM leukemia, 36.8 µM; with HCT-15 colon, 29.5 µM; with HOP-18 NSCLC, above 100 µM; with HOP-92 NSCLC, 40.8 µM; in the assay with KM20L2 colon, above 100 µM. The results for the TGI in the assay with MALME-3M melanoma and with SK-OV-3 ovarian were above 100 µM and 83.1 µM, respectively.

On to `Cn1cc(C(=O)C2CCCCC2)ccc1=O`, for which the concentration for total growth inhibition (TGI) with CAKI-1 renal, with CCRF-CEM leukemia, with HCT-15 colon, with HOP-92 NSCLC, in the assay with KM20L2 colon and in the assay on MALME-3M melanoma was above 100 µM throughout. In addition, in the assay with SK-OV-3 ovarian, the TGI was above 100 µM.

`COc1ccccc1NC(=O)C1=C(C)NC(C)=C(C(=O)Nc2ccccc2OC)C1c1ccc(C(C)C)cc1`: the TGI is above 100 µM with CAKI-1 renal; above 1 µM in the assay with CCRF-CEM leukemia; above 100 µM in the assay with HCT-15 colon; above 100 µM in the assay with HOP-18 NSCLC; above 100 µM with HOP-92 NSCLC; above 100 µM with KM20L2 colon. Further, the TGI in the assay on MALME-3M melanoma and with SK-OV-3 ovarian was above 100 µM each time.

By GI50 is commonly meant the concentration giving 50% growth inhibition. On to `CC(CN(CP(=O)([O-])[O-])CP(=O)([O-])[O-])N(CP(=O)([O-])[O-])CP(=O)([O-])[O-].N[C@@H]1CCCC[C@@H]1N.[Pt+2]` (stereo not given), for which the GI50 with CAKI-1 renal, in the assay with CCRF-CEM leukemia, with HCT-15 colon, in the assay on HOP-18 NSCLC, in the assay on HOP-92 NSCLC and with KM20L2 colon was above 100 µM each time. The GI50 in the assay on MALME-3M melanoma and with SK-OV-3 ovarian was above 100 µM throughout. The total growth inhibition concentration (TGI) in the assay with CAKI-1 renal, with CCRF-CEM leukemia, in the assay on HCT-15 colon, with HOP-18 NSCLC, with HOP-92 NSCLC and in the assay with KM20L2 colon was above 100 µM in each case. Further, the TGI in the assay on MALME-3M melanoma and with SK-OV-3 ovarian was above 100 µM each time.

As for `Cc1ccc(S(=O)(=O)N2CCCCC2CCO)cc1` (stereo not given), the TGI in the assay on CAKI-1 renal, with CCRF-CEM leukemia, in the assay with HCT-15 colon, in the assay with HOP-18 NSCLC, in the assay on HOP-92 NSCLC and in the assay on KM20L2 colon was above 100 µM throughout. Further, the TGI with MALME-3M melanoma and with SK-OV-3 ovarian was above 100 µM throughout.

Consider `Cc1cc(Cl)ccc1NC(=O)C1C(=O)N(c2ccc(Cl)cc2C)C(=O)/C1=N\N` (stereo not given), for which the concentration for total growth inhibition (TGI) in the assay with CAKI-1 renal, in the assay with CCRF-CEM leukemia, in the assay on HCT-15 colon, in the assay on HOP-18 NSCLC, in the assay on HOP-92 NSCLC and in the assay with KM20L2 colon was above 100 µM each time. Further, the total growth inhibition concentration (TGI) in the assay on MALME-3M melanoma and with SK-OV-3 ovarian was above 100 µM in each case.

Consider `O=C(/C=C/c1ccccc1F)C(c1ccccc1)c1ccccc1`, for which the TGI is 17.8 µM with CAKI-1 renal; 6.32 µM in the assay on CCRF-CEM leukemia; 23.8 µM in the assay with HCT-15 colon; 8.72 µM with HOP-92 NSCLC; 15.6 µM with KM20L2 colon; 23.7 µM with MALME-3M melanoma. Also, the TGI with SK-OV-3 ovarian came out at 8.47 µM.

`CCN(CCCl)CCNc1c2ccccc2nc2ccc(OC)cc12`: the concentration for total growth inhibition (TGI) came to 4.23 µM with CAKI-1 renal; 2.41 µM with CCRF-CEM leukemia; 3.39 µM in the assay on HCT-15 colon; 8.02 µM in the assay on HOP-18 NSCLC; 2.43 µM in the assay with HOP-92 NSCLC; 3.45 µM with KM20L2 colon. For the same compound, the total growth inhibition concentration (TGI) worked out at 2.31 µM with MALME-3M melanoma, 12.8 µM with NCI/ADR-RES ovarian and 3.81 µM with SK-OV-3 ovarian.

`CC(C)(C)c1cc(C(O)(C(F)(F)F)C(F)(F)F)c2c(c1)C(C(F)(F)F)(C(F)(F)F)OC(c1ccccc1)(C(C)(C)C)N2` (stereo not given): the TGI in the assay with CAKI-1 renal came to 16.4 µM; in the assay with HCT-15 colon, 13.7 µM; with HOP-18 NSCLC, 6.81 µM; in the assay on KM20L2 colon, 21 µM; with MALME-3M melanoma, 27.6 µM; in the assay on SK-OV-3 ovarian it was 7.39 µM.

Take `CCCCOC(=O)N[C@H]1CCc2cc(OC)c(OC)c(OC)c2-c2ccc(SC)c(=O)cc21`: the total growth inhibition concentration (TGI) was 25.6 µM in the assay with CAKI-1 renal; 35.8 µM with CCRF-CEM leukemia; above 15.8 µM in the assay on HCT-15 colon; above 100 µM with HOP-18 NSCLC; 30.9 µM in the assay with HOP-92 NSCLC; below 0.01 µM in the assay with KM20L2 colon. For the same compound, the TGI in the assay with MALME-3M melanoma was 46.6 µM; with PC-3 prostate, above 81 µM; with SK-OV-3 ovarian it was 7.24 µM.

For `O=C1/C(=C/c2ccc(O)cc2)CCC1CNc1ccc(Cl)cc1` (stereo not given), the concentration for total growth inhibition (TGI) worked out at 8.84 µM with CAKI-1 renal; 11.2 µM in the assay on CCRF-CEM leukemia; 2.83 µM in the assay with HCT-15 colon; 13.5 µM with HOP-18 NSCLC; 28.4 µM in the assay on HOP-92 NSCLC; 14.2 µM in the assay on KM20L2 colon. Besides, the TGI in the assay with MALME-3M melanoma is 8.57 µM; in the assay with NCI/ADR-RES ovarian it was 20.1 µM; with PC-3 prostate, 18.2 µM; in the assay on SK-OV-3 ovarian, 20.9 µM.

With `O=C1C(c2ccccc2)=C(c2ccccc2)C(c2ccccc2)/C1=C1\C(=O)C(c2ccccc2)=C(c2ccccc2)C1c1ccccc1` (stereo not given), the TGI in the assay with CAKI-1 renal, in the assay with HCT-15 colon, with HOP-18 NSCLC, in the assay with HOP-92 NSCLC, in the assay with KM20L2 colon and in the assay on MALME-3M melanoma was above 100 µM each time. Besides, in the assay with SK-OV-3 ovarian, the TGI is above 100 µM.

In the case of `CC(C)(C)c1ccccc1NS(=O)(=O)c1ccccc1`, the TGI in the assay on CAKI-1 renal, with CCRF-CEM leukemia, with HCT-15 colon, in the assay with KM20L2 colon, in the assay on MALME-3M melanoma and in the assay with SK-OV-3 ovarian was above 100 µM each time.
